Experimental data from patent publication EP0110955B1, “BRAIN-SPECIFIC DRUG DELIVERY” (UNIVERSITY OF FLORIDA, priority 1982, dated 1983).

Tests used:
[1] = Enzymatic hydrolytic cleavage and rate of oxidation of compound 5c in human blood (HPLC); format: in vitro ADME; settings: whole citrated blood, 37°C, pseudo first order, read-out: apparent half-lives for the disappearance
Protocol: (§1) A high pressure liquid chromatography (HPLC) method was developed for the studies of the degradation of the dihydropyridine dopamine derivative. The chromatographic analysis was performed on a component system consisting of a Waters Associate Model 6000A solvent delivery system, Model U6K injector and Model 440 dual channel absorbance detector operated at 254 and 280 nm. A 30 cm x 3.9 mm (internal diameter) reverse phase µBondapak C18 column (Waters Associates), operated at ambient temperature, was used for all separations. The mobile phase used for the separation of the dihydropyridine derivative, its degradation products and oxidation products consisted of 0.005 M solution of 1-heptanesul- fonic acid sodium salt (PIC B-7 Eastman Kodak) in CH3CN; 0.01 M aqueous dibasic ammonium phosphate (2.5:1). A peak was always shown at a retention time of 2.2 min which is believed to be a monodeacylated dihydropyridine derivative, since it eventually did result in 6a.
The freshly collected heparinized blood was obtained at the Civitan Regional Blood Center, Inc. (Gainesville, Florida). The blood was stored in a refrigerator and used the next day. […] When all samples had been collected, they were centrifuged and the supernatants were filtered using Whatman 4 filter paper and analyzed by HPLC.

[2] = Enzymatic hydrolytic cleavage and rate of oxidation of compound 5c in rat brain homogenate (HPLC); format: in vitro ADME, Sprague-Dawley rats; settings: rat, pH 7.4; 20% brain homogenate, 37°C, pseudo first order; read-out: apparent half-lives for the disappearance
Protocol: as §1
The brain homogenate was prepared by the following method. Five Sprague-Dawley rats were killed by decapitation and the brains were removed, weighed (total weight 9.85 g) and homogenized in 49.3 ml of aqueous 0.11 M phosphate buffer, pH 7.4. The homogenate was centrifuged and the supernatant was used for the test. […] Each supernatant was filtered through two Whatman 1 filter papers and analyzed by HPLC.

[3] = Concentration of compound 6a in brain and blood after parenteral administration of 5c; format: in vivo, Male Sprague-Dawley rats; settings: after administration of 5c, rat
Protocol: The dihydropyridine derivative (5c) was then selected for the in vivo study. A solution in DMSO (dimethylsulfoxide) was injected through the jugular vein to a group of male Sprague-Dawley rats which were then sacrificed at various time intervals; their blood and brains were analyzed for the quaternary percursor of dopamine (6a). The in vivo dopaminergic activities of the selected compounds 5c vs. 6a were then determined.
Male Sprague-Dawley rats of average weight of 150 ± 10g were used. The rats were anesthetized with IM injection of Inovar and the jugular was exposed. Compound 5c was injected intrajugularly in the form of 10% solution in DMSO at a dose of 64.2 mg/kg (equivalent to 50 mg/kg compound 6a). The injection was given at a rate of 24 µl/min using a calibrated infusion pump. […] The weighed brain was homogenized with 0.5 ml of distilled water, 3 ml of acetonitrile was added and the mixture was rehomogenized thoroughly, centrifuged, filtered and then analyzed for compound 6a using the HPLC method. The tubes containing the blood were shaken vigorously, centrifuged, decanted and also analyzed for compound 6a using the HPLC method. Quantitation was done by using a recovery standard curve obtained by introducing a known amount of 6a in either brain homogenate or blood and then treated in the same manner. […]

[4] = Enzymatic hydrolytic cleavage and rate of oxidation of compound 5c in human plasma (HPLC); format: in vitro ADME; settings: 80% plasma, 37°C, pseudo first order, read-out: apparent half-lives for the disappearance
Protocol: as §1
The freshly collected plasma used was obtained at the Civitan Regional Blood Center, Inc. (Gainesville, Florida) and contained about 80% plasma diluted with anticoagulant citrate phosphate dextrose solution U.S.P. The plasma was stored in a refrigerator and used the next day. […] When all samples had been collected, they were centrifuged and the supernatants were filtered through Whatman 1 filter papers and analyzed to HPLC.

[5] = Enzymatic hydrolytic cleavage and rate of oxidation of compound 5c in rat liver homogenate (HPLC); format: in vitro ADME, Sprague-Dawley rats; settings: rat, pH 7.4; 20% liver homogenate, 37°C, pseudo first order; read-out: apparent half-lives for the disappearance
Protocol: as §1
The liver homogenate was prepared by the following method. Three Sprague-Dawley rats were killed by decapitation and the livers were removed, weighed and homogenized by tissue homogenizer in 0.11 M aqueous phosphate buffer, pH 7.4, to make 20% liver homogenate. […] When all samples had been collected, they were centrifuged and each supernatant was filtered through Whatman 1 filter paper and analyzed by HPLC.

- half-life at 900 µM [1]: 18 min
- half-life at 1800 µM [2]: 17 min
- half-life at 3050 µM [4]: 51 min
- half-life at 900 µM [5]: 6 min
Compound: CN1C=CCC(C(=O)NCCc2ccc(OC(=O)C(C)(C)C)c(OC(=O)C(C)(C)C)c2)=C1 [5c, 1-Methyl-3-(N-[β-(3,4-dipivalyloxyphenyl)-ethyl]}carbamoyl-1,4-dihydropyridine]
- formation of O-methyl metabolites (9, 10) in the brain [3]: No formation of O-methyl metabolites (9, 10) could be detected
